In patent publication US9394338B2, “Glutathione analogs and uses thereof” (REGENTS OF THE UNIVERSITY OF MINNESOTA, priority 2011, dated 2016):

What was measured:
SH-SY-5Y cells [1] = test: Protection against H2O2 cytotoxicity, MTT assay; type: cell-based, human; conditions: preincubation 24 h, H2O2 50 μM 30 min
Procedure: Similar procedures were used for determining the protective effect of GSH and its analog against H2O2 cytotoxicity. After preincubation of cells with GSH or Ψ-GSH for 24 hours, cells were exposed to H2O2 (50 μM) for 30 min and the media was replaced with fresh media. Cells were incubated for an additional 24 h after which the cell viability was the determined by the MTT assay as described earlier.

SH-SY-5Y cells [2] = test: H2O2 and MG-induced cellular oxidative stress (DCFH-DA); type: cell-based, human; conditions: for intracellular ROS after H2O2 exposure: H2O2 500 μM, co-incubation with 250 μM compound; for ROS generated by MG treatment: MG 1 mM, 180 min, 250 μM compound
Procedure: H2O2 and MG-Induced Cellular Oxidative Stress. SH-SY-5Y cells were cultured in 96-well black plates at the density of 10,000 cells/well and were allowed to reach confluence (˜48 h). The cells were then treated with a solution of 2,7-dichlorofluorescin diacetate (DCFH-DA, 20 μM) in RPMI 1640 medium without FBS for 45 min. Extracellular DCFH-DA was removed by washing twice with PBS. To induce oxidative stress, the cells were treated with hydrogen peroxide (500 μM) or methylglyoxal (1 mM) in RPMI media without FBS in presence and absence of GSH or Ψ-GSH (250 μM) for 90 min or 180 min at 37° C. in the dark. The cells were washed with PBS and then lysed by adding 250 μl of 90% DMSO/10% PBS for 10 min in the dark at room temperature with shaking. The fluorescence intensity in each well was measured in the fluorescence plate reader (BioTek SynergyHT, VT, USA) at an excitation of 485 nm and an emission of 538 nm and normalized to the protein content in each well as determined by the BCA assay. (Wang et al., Free Radic. Res. 2008, 42, 435-441)

[3] = Pharmacokinetic evaluation in plasma; type: in vivo, C57BL/6 mice; conditions: single i.p. dose 500 mg/kg; for CL_F Clearance / absorption half-life / half-life / AUC / Cmax / Tmax: C57BL/6 mice, plasma; for absorption half-life / half-life / AUC / Cmax / Tmax: female, ip; for absorption half-life / half-life: C57BL/6, mouse, 500 mg/kg; for absorption half-life: read-out: K01 absorption half life (converted); for half-life: read-out: K10 elimination half life (converted); for AUC / Cmax / Tmax: mouse
Procedure: Pharmacokinetic Evaluation of Ψ-GSH. Eight weeks old C57BL/6 female mice (n=4 animals/time point) were given 500 mg/kg of GSH or Ψ-GSH in saline intraperitoneally. Blood samples were collected at […], 1, 2, 4, 8, 24 hr after the drug administration through retro-orbital bleeding into heparin-coated tubes. Blood was immediately centrifuged at 5000×g for 10 min at 4° C. The top plasma layer was transferred into a new tube and mixed with an equal volume of 5% sulfosalicylic acid in […] potassium phosphate buffer containing 1 mM EDTA disodium salt (pH 7.2). This was followed by centrifugation of samples at 8000×g for 10 min at 4° C. and analysis of thiol concentration. The derivatization reaction was realized utilizing 130 μL of the supernatant, 500 μL of Tris-HCl buffer 0.5 M, pH 8.9 and 350 μL of DTNB 10 mM in of K2HPO4 (0.5 M, pH 8.0). After 5 min in an ice bath, the reaction mixture was acidified by addition of 100 μL H3PO4 7 M and centrifuged at 3000×g for 10 min. Then, derivatized GSH or Ψ-GSH was filtered through a 0.22 μm membrane and 20 μL was injected in HPLC at 330 nm. HPLC analysis was carried out on a Beckman Coulter Gold HPLC system, controlled by a system controller (32 Karat workstation with PC). The HPLC conditions employed a Varian Microsorb column (C18, 5 μm, 4.6×250 mm) using solvent A [water containing 0.9% v/v formic acid] and solvent B [acetonitrile] with 1 mL/min flow rate and detected at 330 nm. Solvent B was increased from 0 to 30% in 9 min, then to 80% in 7 min, and held at 80% for an additional 4 min. The retention time for derivatized Ψ-GSH was 11.8 minutes.

APP/PS1 mice [4] = test: Immunohistochemistry of Aβ plaques in brain; type: in vivo
Procedure: (§1) Efficacy Study Design. To determine the effect of intraperitoneal and oral Ψ-GSH treatment, the study was divided in four groups (10 mice/group). 1. APP/PS1 mice-vehicle control, 2. APP/PS1 mice-Ψ-GSH i.p. 500 mg/kg, 3. APP/PS1 mice-Ψ-GSH oral 500 mg/kg, 4. Non-transgenic wild type mice-vehicle control. All the animals in the above-said groups were treated with saline or Ψ-GSH three times a week for 12 weeks, starting at the age of three to four months. Eleven weeks after the start of the treatment, the animals were tested in the Morris water maze, and twelve weeks after the start of the treatment, the animals were sacrificed for histopathological analysis.
Immunohistochemistry. Mice were anesthetized, and their brains were removed, cut sagittaly. Following post-fixation of right hemisphere in Zamboni's fixative (4% paraformaldehyde and 15% picric acid in 0.25 M sodium phosphate, pH 7.5) for 48 h before being cryopreserved in a 30% (wt/vol) sucrose in phosphate-buffered saline solution. Brains were then were embedded in O.C.T. Tissue Tek Compound (Miles Scientific) and were cryosectioned at 10 μm thickness for immunohistochemistry, mounted on Superfrost™ microscope slides (Erie Scientific, Portsmouth N.H.) and stored at […] until their utilization.
The brain sections were stained with a primary antibody against 0-amyloid peptide (Cell signaling, Cat. #2454) at a dilution of 1:200 in PBS. […]

APP/PS1 mice [5] = test: Brain ROS assay (DCFH-DA); type: in vivo
Procedure: as §1
ROS Assay. ROS levels were quantified via the 2′-7′-dichlorofluorescein-diacetate (DCFH-DA) assay. […] The reaction was then stopped by placing it on ice and the formation of oxidized fluorescent 2′-7′-dichlorofluorescein (DCF) was measured with a fluorescence plate reader (BioTek SynergyHT, VT, USA) using excitation and emission wavelengths at 488 and 525 nm, respectively. The final results were corrected for protein concentration and then expressed as percentage of the corresponding values in saline treated wild-type mice. All steps were performed in the dark and DCF formation was also monitored immediately after DCFH-DA was added to the homogenate (t=0 min) in order to subtract background autofluorescence.

Compound | protection against peroxide cytotoxicity (SH-SY-5Y cells [1]) | intracellular ROS after H2O2 exposure (SH-SY-5Y cells [2]) | ROS generated by MG treatment (SH-SY-5Y cells [2]) | CL_F Clearance [3] | absorption half-life [3] | half-life [3] | AUC [3] | Cmax [3] | Tmax [3] | AUC relative to GSH [3] | Cmax relative to GSH [3] | Tmax relative to GSH [3] | number and size of Aβ plaques (APP/PS1 mice [4]; i.p.) | Aβ plaques relative to controls (APP/PS1 mice [4]; oral) | total brain ROS levels, increase over WT mice (APP/PS1 mice [5]; i.p.) | levels of ROS (APP/PS1 mice [5]; oral)
N[C@@H](CNC(=O)N[C@@H](CS)C(=O)NCC(=O)O)C(=O)O [Ψ-GSH, γ-Gla-Cys-Gly-OH] | dose-dependent protection | reduction in ROS to the levels in control cells | neutralized effectively | 31.15 mL/min/kg | 10.3 min | 73.6 min | 267 µg·h/mL | 110 µg/mL | 34 min | 5.3 fold | 2.5 fold | 3 fold | drastically reduced | modest decrease | 6% | unaffected
N[C@@H](CCC(=O)N[C@@H](CS)C(=O)NCC(=O)O)C(=O)O [GSH, Glutathione] | dose-dependent protection | reduction in ROS to the levels in control cells | neutralized effectively | 165.9 mL/min/kg | 7.62 min | 29.7 min | 50.2 µg·h/mL | 43.9 µg/mL | 20.2 min |  |  |  |  |  |  | 
